# Tests used:
# Adrenergic β2 = molecular target: T1, Adrenergic β2 (Homo sapiens, UniProt P07550); assay: Adrenergic β2 mediated cAMP production in H292 cells (AlphaScreen), concentration response; type: cell-based; details: for EC50: 60 min, 300 μM rolipram, read-out: β2 pEC50 (converted); for β2 Intrinsic Activity: fraction relative to the maximum activity determined for formoterol
# T1 construct: Adherent H292 cells are removed from tissue culture flasks by treatment with Accutase™ cell detachment solution; endogenous in cells; host or cells: H292 cells
# Outline: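 Intracellular cAMP in lysates read by AlphaScreen, calibrated with cAMP standards; curves fitted for pEC50, with intrinsic activity as a fraction of formoterol's maximum. Agonist exposure 60 min at room temperature after 10 min rolipram (300 μM final), 1% DMSO, HEPES-buffered HBSS pH 7.4.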
# [1] = molecular target: T2, human muscarinic acetylcholine M3 receptor (Homo sapiens, UniProt P20309); assay: Muscarinic 3 receptor binding assay ([3H]NMS competition, SPA), pIC50; details: [3H]NMS 0.1 nM, CHO-K1 cell membranes expressing human M3 receptor
# T2 construct: expressed in transfected cells; host or cells: CHO-K1 (Chinese Hamster Ovary) cell membranes
# Outline: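 SPA beads precoated with human M3-expressing CHO-K1 membranes were incubated 16 h at room temperature with serially diluted compound and 0.1 nM [3H]NMS (pH 7.4 HEPES buffer, MgCl2, BSA, 1% DMSO). Atropine (1 μM) defined non-specific binding; pIC50 is the 50% reduction in specific binding.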
# T2 sequence (P20309 whole entry): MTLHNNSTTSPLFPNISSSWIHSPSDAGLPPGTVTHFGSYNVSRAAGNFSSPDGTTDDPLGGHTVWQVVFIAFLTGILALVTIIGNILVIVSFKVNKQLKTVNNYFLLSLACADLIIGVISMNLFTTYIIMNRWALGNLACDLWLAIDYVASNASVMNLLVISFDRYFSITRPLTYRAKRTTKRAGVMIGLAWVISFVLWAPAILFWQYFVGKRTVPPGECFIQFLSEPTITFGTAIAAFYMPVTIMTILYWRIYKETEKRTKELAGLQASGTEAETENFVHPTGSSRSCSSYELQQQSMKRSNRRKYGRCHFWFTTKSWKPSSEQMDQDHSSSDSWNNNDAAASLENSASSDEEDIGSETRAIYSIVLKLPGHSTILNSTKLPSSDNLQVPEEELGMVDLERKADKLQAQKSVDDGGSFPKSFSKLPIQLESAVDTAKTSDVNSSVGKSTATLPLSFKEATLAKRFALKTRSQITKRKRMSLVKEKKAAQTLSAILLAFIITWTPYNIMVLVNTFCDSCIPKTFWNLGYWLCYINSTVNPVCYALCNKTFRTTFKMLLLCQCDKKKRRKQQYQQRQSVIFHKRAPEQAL
# T1 sequence (P07550 whole entry): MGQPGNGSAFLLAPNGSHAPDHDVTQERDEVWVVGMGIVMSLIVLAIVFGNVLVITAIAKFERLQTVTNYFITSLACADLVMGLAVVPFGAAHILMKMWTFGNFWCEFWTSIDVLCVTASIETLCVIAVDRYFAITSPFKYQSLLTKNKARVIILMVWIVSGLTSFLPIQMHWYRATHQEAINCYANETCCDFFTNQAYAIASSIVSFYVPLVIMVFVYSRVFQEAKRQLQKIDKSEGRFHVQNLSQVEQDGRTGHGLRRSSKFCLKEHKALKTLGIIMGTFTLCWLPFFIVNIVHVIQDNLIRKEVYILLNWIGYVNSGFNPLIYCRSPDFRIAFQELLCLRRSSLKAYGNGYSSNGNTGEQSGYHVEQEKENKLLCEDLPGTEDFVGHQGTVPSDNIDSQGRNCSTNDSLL
EC50 (Adrenergic β2) [µM],β2 Intrinsic Activity (Adrenergic β2),IC50 [1] [µM],Compound
0.0398,0.9,0.00631,"Cc1nc(C(=O)N2CCOC3(CCN(Cc4ccc(CCOCCC(=O)N(CCNCCc5ccc(O)c6c5OCC(=O)N6)C5CCCCC5)cc4)CC3)C2)cs1 [Example 45, N-Cyclohexyl-N-(2-(2-(5-hydroxy-3-oxo-3,4-dihydro-2H-benzo[b][1,4]oxazin-8-yl)ethylamino)ethyl)-3-(4-((4-(2-methylthiazole-4-carbonyl)-1-oxa-4,9-diazaspiro[5.5]undecan-9-yl)methyl)phenethoxy)propanamide ditrifluoroacetate]"
0.398,0.9,0.000316,"CCN(CCNCCc1ccc(O)c2[nH]c(=O)sc12)C(=O)CCOCCc1cc(CN2CCC3(CC2)CN(C(=O)c2csc(C)n2)CCO3)ccc1Cl [Example 46, 3-(2-Chloro-5-((4-(2-methylthiazole-4-carbonyl)-4-oxa-4,9-diazaspiro[5.5]undecan-9-yl)methyl)phenethoxy)-N-ethyl-N-(2-(2-(4-hydroxy-2-oxo-2,3-dihydrobenzo[d]thiazol-7-yl)ethylamino)ethyl)propanamide ditrifluoroacetate]"
0.0631,0.9,0.000398,"CC(C)c1nc(C(=O)N2CCOC3(CCN(Cc4cc(F)cc(CCOCCC(=O)N(CCNCCc5ccc(O)c6c5OCC(=O)N6)C5CCCCC5)c4)CC3)C2)cs1 [Example 47, N-Cyclohexyl-3-(3-fluoro-5-((4-(2-isopropylthiazole-4-carbonyl)-1-oxa-4,9-diazaspiro[5.5]undecan-9-yl)methyl)phenethoxy)-N-(2-(2-(5-hydroxy-3-oxo-3,4-dihydro-2H-benzo[b][1,4]oxazin-8-yl)ethylamino)ethyl)propanamide ditrifluoroacetate]"
0.2,0.9,0.0002,"CCN(CCNCCc1ccc(O)c2[nH]c(=O)sc12)C(=O)CCOCCc1csc(CN2CCC3(CC2)CN(C(=O)c2csc(C(C)C)n2)CCO3)c1 [Example 48, N-Ethyl-N-(2-(2-(4-hydroxy-2-oxo-2,3-dihydrobenzo[d]thiazol-7-yl)ethylamino)ethyl)-3-(2-(5-((4-(2-isopropylthiazole-4-carbonyl)-1-oxa-4,9-diazaspiro[5.5]undecan-9-yl)methyl)thiophen-3-yl)ethoxy)propanamide ditrifluoroacetate]"
0.158,0.9,0.00316,"CC(C)c1nc(C(=O)N2CCOC3(CCN(Cc4cc(CCOCCC(=O)N(CCNCCc5ccc(O)c6c5OCC(=O)N6)C5CCCCC5)ccc4Cl)CC3)C2)cs1 [Example 49, 3-(4-Chloro-3-((4-(2-isopropylthiazole-4-carbonyl)-1-oxa-4,9-diazaspiro[5.5]undecan-9-yl)methyl)phenethoxy)-N-cyclohexyl-N-(2-(2-(5-hydroxy-3-oxo-3,4-dihydro-2H-benzo[b][1,4]oxazin-8-yl)ethylamino)ethyl)propanamide ditrifluoroacetate]"
0.126,0.9,0.794,"CCN(CCNCCc1ccc(O)c2[nH]c(=O)sc12)C(=O)CCOCCc1cc(Cl)cc(CN2CCC3(CC2)CN(C(=O)c2csc(C(C)C)n2)CCO3)c1 [Example 50, 3-(3-Chloro-5-((4-(2-isopropylthiazole-4-carbonyl)-1-oxa-4,9-diazaspiro[5.5]undecan-9-yl)methyl)phenethoxy)-N-ethyl-N-(2-(2-(4-hydroxy-2-oxo-2,3-dihydrobenzo[d]thiazol-7-yl)ethylamino)ethyl)propanamide ditrifluoroacetate]"
0.0631,1.1,0.00398,"CC(C)c1nc(C(=O)N2CCOC3(CCN(CCOc4ccc(CCOCCC(=O)N(CCNCCc5ccc(O)c6c5OCC(=O)N6)C5CCCCC5)cc4)CC3)C2)cs1 [Example 51, N-Cyclohexyl-N-(2-(2-(5-hydroxy-3-oxo-3,4-dihydro-2H-benzo[b][1,4]oxazin-8-yl)ethylamino)ethyl)-3-(4-(2-(4-(2-isopropylthiazole-4-carbonyl)-1-oxa-4,9-diazaspiro[5.5]undecan-9-yl)ethoxy)phenethoxy)propanamide ditrifluoroacetate]"

# Reference: patent US8476265B2, “Compounds-801” (AstraZeneca AB, priority 2010, dated 2013)
